The NIST ThermoML archive (doi:10.1016/j.jct.2018.01.024)

Assay: mn = molality of the nth substance listed, in mol/kg
Conditions: Liquid, m2 = 0

O [water] + NC(N)=O
Conditions	mass density [kg/m3]
274.15 K, 101 kPa, Vibrating tube method	999.899
275.15 K, 101 kPa, Vibrating tube method	999.94
276.15 K, 101 kPa, Vibrating tube method	999.964
277.15 K, 101 kPa, Vibrating tube method	999.972
278.15 K, 101 kPa, Vibrating tube method	999.964
278.15 K, 10000 kPa, Constant-volume piezometry	1004.78
278.15 K, 25000 kPa, Constant-volume piezometry	1011.88
278.15 K, 50000 kPa, Constant-volume piezometry	1023.2
278.15 K, 75000 kPa, Constant-volume piezometry	1033.92
278.15 K, 100000 kPa, Constant-volume piezometry	1044.08
279.15 K, 101 kPa, Vibrating tube method	999.94
280.15 K, 101 kPa, Vibrating tube method	999.901
281.15 K, 101 kPa, Vibrating tube method	999.848
282.15 K, 101 kPa, Vibrating tube method	999.781
283.15 K, 101 kPa, Vibrating tube method	999.699
288.15 K, 10000 kPa, Constant-volume piezometry	1003.66
288.15 K, 25000 kPa, Constant-volume piezometry	1010.42
288.15 K, 50000 kPa, Constant-volume piezometry	1021.21
288.15 K, 75000 kPa, Constant-volume piezometry	1031.47
288.15 K, 100000 kPa, Constant-volume piezometry	1041.23
298.15 K, 10000 kPa, Constant-volume piezometry	1001.46
298.15 K, 25000 kPa, Constant-volume piezometry	1007.99
298.15 K, 50000 kPa, Constant-volume piezometry	1018.44
298.15 K, 75000 kPa, Constant-volume piezometry	1028.38
298.15 K, 100000 kPa, Constant-volume piezometry	1037.86
308.15 K, 10000 kPa, Constant-volume piezometry	998.36
308.15 K, 25000 kPa, Constant-volume piezometry	1004.74
308.15 K, 50000 kPa, Constant-volume piezometry	1014.97
308.15 K, 75000 kPa, Constant-volume piezometry	1024.71
308.15 K, 100000 kPa, Constant-volume piezometry	1034.01
323.15 K, 101 kPa, Vibrating tube method	988.03
323.15 K, 10000 kPa, Constant-volume piezometry	992.3
323.15 K, 25000 kPa, Constant-volume piezometry	998.61
323.15 K, 50000 kPa, Constant-volume piezometry	1008.68
323.15 K, 75000 kPa, Constant-volume piezometry	1018.27
323.15 K, 100000 kPa, Constant-volume piezometry	1027.42
333.15 K, 101 kPa, Vibrating tube method	983.191
